Where two headings read alike, the source gives them in different places.

This is an account of results in PMC6273488, “Synthesis and Biological Evaluation of Benzochromenopyrimidinones as Cholinesterase Inhibitors and Potent Antioxidant, Non-Hepatotoxic Agents for Alzheimer’s Disease” (Molecules, 2016).

Data set [1] has as its target T1, Electrophorus electricus AChE (EeAChE) (Electrophorus electricus, UniProt O42275).
T1 construct: purified AChE from Electrophorus electricus (Type V-S, Sigma-Aldrich); purchased Sigma-Aldrich Type V-S
As to the kind of experiment: Inhibition of EeAChE (Ellman's assay). In kind it is biochemical. The note with it: mean ± SEM, at least three independent experiments. The method, then:
(§1) For the preliminary screening of the inhibitory potencies, Electrophorus electricus AChE (EeAChE) and horse serum BuChE (eqBuChE) were used following the Ellman’s assay.
(§2) Assessment of the inhibitory power of BCPOs was performed following the spectrophotometric method of Ellman using purified AChE from Electrophorus electricus (Type V-S, Sigma-Aldrich) or BuChE from horse serum (lyophilized powder, Sigma-Aldrich). Enzymes were first dissolved in 0.1 M phosphate buffer (pH 8.0) and then aliquoted in small vials for easy handling. Compounds stock solutions in DMSO (10 mM) were diluted when necessary with DMSO to prepare appropriate dilutions of each compound. The assay was performed in a final volume of 3 mL of a 0.1 M phosphate-buffered solution at pH 8.0, containing 5,5′-dithiobis-2-nitrobenzoic acid (DTNB, 2625 µL, 0.35 mM, final concentration), EeAChE (29 µL, 0.035 U/mL final concentration) or eqBuChE (60 µL, 0.05 U/mL final concentration) tested compound (3 µL, different concentrations) and 1% (w/v) Bovine Albumin Serum phosphate-buffered (pH 8.0) solution (BSA, 40 µL). The inhibition in comparison to control without compound was determined by pre-incubating this blend at room temperature with each compound at nine different concentrations for 10 min. Then, acetylthiocholine iodide (105 µL, 0.35 mM, final concentration) or butyrylthiocholine iodide (150 µL, 0.5 mM final concentration) was added and incubated for another 15 min at rt. […] Calculation of IC50 values was performed with GraphPad Prism 5. Each concentration was measured in triplicate. Data are expressed as mean ± SEM.
On the technique in general: In Ellman's method for cholinesterases, released thiocholine reacts with DTNB.

The nature of data set [2]: Oxygen radical absorbance capacity by fluorescence (ORAC-FL). The note with it: mean ± SD. The method, then: Trolox was used as standard, fluorescein as fluorescent probe and 2,2′-azobis(2-amidinopropane) dihydrochloride (AAPH) as the peroxyl radical source. Ferulic acid was used as a positive control.
The antioxidant power of BCPOs was determined following the ORAC-FL method using fluorescein as the fluorescent probe. (±)-6-Hydroxy-2,5,7,8-tetramethylchromane-2-carboxylic acid (Trolox), fluorescein (FL) and AAPH were bought from Sigma-Aldrich (Saint Louis, MO, USA). A Varioskan Flash plate reader with built-in injectors (Thermo Scientific, Waltham, MA, USA) was used. The final volume reaction mixture was 200 µL and the reaction was carried out at 37 °C in 75 mM phosphate buffer (pH 7.4). The tested compounds and Trolox standard were dissolved in DMSO to 10 mM and further diluted in phosphate buffer. The final concentrations were 0.1–1 µM for the tested compounds and 1–8 µM for Trolox standard. The blank was composed of 120 µL of FL, 60 µL of AAPH and 20 µL of phosphate buffer (pH = 7.4) and was added in each assay. The antioxidant (20 µL) and fluorescein (FL, 120 µL, final concentration of 70 nM) were incubated in a black 96-well microplate Nunc, purchazed from Thermo Fisher Scientific, Ecublens, Switzerland) for 15 min at 37 °C. Then, AAPH, 60 µL, final concentration of 12 mM) solution was added quickly using the built-in injector. […] The microplate was automatically shaken prior to each reading. All the experiments were made in triplicate and at least three different assays were performed for each sample.
Using MS Excel software, regression equations were extrapolated by plotting the net AUC against the antioxidant concentration. The ORAC values were then obtained by dividing the slope of the latter curve between the slope of the Trolox curve obtained in the same assay. Final ORAC values were expressed as Trolox equivalents. Data are expressed as mean ± SD.

The target in data set [3] is T2, horse serum BuChE (eqBuChE) (Equus caballus, UniProt P81908).
T2 construct: BuChE from horse serum (lyophilized powder, Sigma-Aldrich); purchased Sigma-Aldrich; host or cells: horse serum
T2 sequence (P81908 whole entry): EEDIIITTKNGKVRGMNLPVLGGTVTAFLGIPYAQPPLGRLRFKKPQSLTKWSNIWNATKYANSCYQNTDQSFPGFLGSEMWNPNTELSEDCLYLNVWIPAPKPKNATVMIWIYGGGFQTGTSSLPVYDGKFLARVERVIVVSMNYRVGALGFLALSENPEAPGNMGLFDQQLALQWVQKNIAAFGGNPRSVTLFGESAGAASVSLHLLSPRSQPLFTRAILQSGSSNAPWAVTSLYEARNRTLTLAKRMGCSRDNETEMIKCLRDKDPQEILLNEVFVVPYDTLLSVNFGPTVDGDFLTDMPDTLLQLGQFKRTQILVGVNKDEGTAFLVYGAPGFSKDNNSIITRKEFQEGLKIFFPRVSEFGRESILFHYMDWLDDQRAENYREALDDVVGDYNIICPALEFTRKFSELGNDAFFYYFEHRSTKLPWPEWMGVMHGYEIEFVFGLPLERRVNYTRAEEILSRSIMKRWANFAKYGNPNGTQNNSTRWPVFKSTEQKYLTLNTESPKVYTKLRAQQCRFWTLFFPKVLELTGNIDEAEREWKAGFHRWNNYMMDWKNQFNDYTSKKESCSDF
As to the kind of experiment: Inhibition of eqBuChE (Ellman's assay). In kind it is biochemical. The note with it: 10 µM compound. The method, then: as §1, §2

The conditions of data set [4]: ORAC-FL, cited from earlier work.
The target of data set [5] is T2, horse serum BuChE (eqBuChE). The note with it: cited from earlier work.
Data set [6] addresses T1, Electrophorus electricus AChE (EeAChE). The note with it: cited from earlier work.
Data set [7] in a line: in vitro. The conditions noted are these: for Papp: PAMPA, pH 7.4. The method, then:
Penetration across the BBB is an essential property for compounds targeting the CNS. […] The filter membrane of the donor plate was coated with PBL (Polar Brain Lipid, Avanti, AL, USA) in dodecane (4 µL of 20 mg/mL PBL in dodecane) and the acceptor well was filled with 300 µL of PBS pH 7.4 buffer ([…]). Tested compounds were dissolved first in DMSO and that diluted with PBS pH 7.4 to reach the final concentration 100 µM in the donor well. […] 300 µL of the donor solution was added to the donor wells ([…]) and the donor filter plate was carefully put on the acceptor plate so that coated membrane was “in touch” with both donor solution and acceptor buffer. Test compound diffused from the donor well through the lipid membrane (Area = 0.28 cm^2) to the acceptor well. The concentration of the drug in both donor and the acceptor wells was assessed after 3, 4, 5 and 6 h of incubation in quadruplicate using the UV plate reader Synergy HT (Biotek, Winooski, VT, USA) at the maximum absorption wavelength of each compound.

A further data set concerns HepG2 cells. Kind of data set: in vitro. The conditions noted are these: HepG2, MTT, concentrations up to 1000 μM. The data set is classed as cell-based. The method, then: (§3) A prerequisite for any effective lead drug is to keep its cytotoxicity at the lowest possible level. In this regard, we submitted the four most promising compounds (3Ab, 3Bb, 3Cb and 3Ba) to an in vitro toxicologic evaluation (MTT assay) using human hepatocellular carcinoma cell line (HepG2) which represents a good probe to evaluate hepatotoxic effects. […].
(§4) HepG2 cells were purchased from American Type Culture Collection. The cells were cultured in Eagle’s Minimum Essential Medium (Ozyme, France) supplemented with 10% fetal bovine serum, 1X non-essential amino acids, 100 units/mL penicillin and […] streptomycin (Dutscher, Brumath, France). Cultures were kept under a CO2/air (5%/95%) humidified atmosphere at 37 °C. Prior to the experiment, cells were seeded in 96-well culture plates at a density of 0.1 × 10^6 cells per well. After 24 h of incubation, the culture medium was refreshed and 100 µL of the test compounds or DMSO (0.1%) were added. […] For the MTT assay, after 24 h of treatment, cells were incubated with 50 µL MTT (0.5 mg/mL, Sigma Aldrich, city, France) at 37 °C for 2 h. Plates were centrifuged, MTT was removed and 100 µL DMSO was distributed per well. The absorbance at 570 nm was measured using microplate reader (brand). Cell viability was expressed as percentage of cell viability compared to controls (DMSO, 0.1%).

Data set [8] is described as follows: in vitro. In kind it is cell-based. The conditions noted are these: 24 h, MTT, read-out: In vitro toxicity (% cell viability). The method, then:
as §3, §4

The mark [9] stands for this setting: related alkaloid and synthetic compounds.

T1 sequence (O42275 24-633): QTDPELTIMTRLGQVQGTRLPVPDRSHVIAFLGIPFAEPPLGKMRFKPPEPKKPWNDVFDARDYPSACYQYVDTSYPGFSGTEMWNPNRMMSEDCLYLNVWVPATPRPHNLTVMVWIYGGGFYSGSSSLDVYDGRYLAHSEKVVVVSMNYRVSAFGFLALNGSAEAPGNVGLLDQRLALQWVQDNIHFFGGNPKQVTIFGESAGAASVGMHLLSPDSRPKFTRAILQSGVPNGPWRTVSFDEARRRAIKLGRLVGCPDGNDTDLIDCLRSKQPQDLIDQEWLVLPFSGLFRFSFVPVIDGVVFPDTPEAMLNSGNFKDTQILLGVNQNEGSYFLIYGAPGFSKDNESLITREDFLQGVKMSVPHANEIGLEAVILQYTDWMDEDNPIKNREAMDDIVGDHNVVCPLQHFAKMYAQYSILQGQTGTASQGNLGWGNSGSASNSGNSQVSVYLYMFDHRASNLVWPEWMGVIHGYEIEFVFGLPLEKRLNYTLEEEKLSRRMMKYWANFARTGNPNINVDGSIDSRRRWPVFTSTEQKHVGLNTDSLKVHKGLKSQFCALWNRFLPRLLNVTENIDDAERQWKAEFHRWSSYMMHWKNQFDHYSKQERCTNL

A word on the IC50: it is the concentration needed to halve the response being measured. Usually inhibition stands for the change of the read-out against control, counted positive when it falls. Low readings indicate little suppression, high ones strong suppression. In turn, `Cc1ccc(C2c3ccc4ccccc4c3Oc3nc4n(c(=O)c32)CCC4)cc1` (stereo not drawn) [4Ca, 7-(4′-Methylphenyl)-11,12-dihydro-7H-benzo[7,8]chromeno[2,3-d]pyrrolo[1,2-a]pyrimidin-8(10H)-one] gave an IC50 in data set [1] of 0.116 ± 0.0062 µM. In addition, in data set [2], the ORAC was determined as 3.2 ± 0.1 Trolox equivalents. At 10 µM the inhibition in [3] was 26.8 ± 2.9%.

Consider `Cc1ccc(C2c3ccc4ccccc4c3Oc3nc4n(c(=O)c32)CCCC4)cc1` (stereo not drawn) [4Cb, 7-(4′-Methylphenyl)-10,11,12,13-tetrahydro-7H-benzo[7,8]chromeno[2,3-d]pyrido[1,2-a]pyrimidin-8-one], for which, in data set [1], the IC50 is 0.193 ± 0.0187 µM. In addition, the ORAC in [2] is 2.9 ± 0.1 Trolox equivalents. Also, the inhibition at 10 µM in [3] turned out to be 24.4 ± 1.2%.

Compound `Cc1ccc(C2c3ccc4ccccc4c3Oc3nc4n(c(=O)c32)CCCCC4)cc1` (stereo not drawn) [4Cc, 17-(4′-Methylphenyl)-11,12,13,14-tetrahydro-7H-benzo[7,8]chromeno[2′,3′,4,5]pyrimido[1,2-a]azepin-8(10H)-one] yielded an IC50 in data set [1] of 0.174 ± 0.0059 µM. In data set [2], this compound gave an ORAC of 3.6 ± 0.2 Trolox equivalents. This compound came in with an inhibition at 10 µM in [3] below 10%.

As for `COc1cc(/C=C/C(=O)O)ccc1O` [Ferulic acid], the ORAC in [4] was 3.7 ± 0.1 [22] Trolox equivalents; in [4] (listed as ferulic acid) it was 3.7 Trolox equivalents.

As for `C[n+]1c2n(c(=O)c3ccccc31)CCc1c-2[nH]c2ccccc12` [II, dehydroevodiamine chloride], the figures for the IC50 in data set [5] and in [6] were 8.4 µM and 6.3 µM, respectively.

Turning to `O=c1c2ccccc2nc2n1CCCC2` [Ib], the IC50 in data set [5] (unit inferred) is above 500 µM; in [6] (setting [9]) it was 38.6 µM.

`O=c1c2ccccc2nc2n1CCCCC2` [Ic]: the IC50 in data set [5] (unit inferred) was above 500 µM; in data set [6] (setting [9]), 279 µM.

One may read the Papp as the rate of passage across a membrane or cell layer, normalised by area and donor concentration. Consider `CN1C(C(=O)Nc2ccccn2)=C(O)c2ccccc2S1(=O)=O` [Piroxicam, reference compound], for which the Papp in “in vitro [7]” turned out to be 2.2 ± 0.15 ×10⁻⁶ cm/s. The “BBB Penetration Estimation CNS (+/−)” value in the data set “in vitro [7]” (PAMPA-BBB class) is listed as “CNS (+/−) (‘CNS (+/−) (BBB permeability uncertain); Pe (10^−6 cm·s^−1) from 4.0 to 2.0)”.

Regarding `CCN(C)C(=O)Oc1cccc([C@H](C)N(C)C)c1` [Rivastigmine, reference compound], the Papp in the data set “in vitro [7]” came to 6.6 ± 0.5 ×10⁻⁶ cm/s.

Usually viability stands for a read-out of living cells in per cent, often relative to untreated cells. Turning to `Nc1c2c(nc3ccccc13)CCCC2` [Tacrine, tacrine, reference compound], the Papp in the data set “in vitro [7]” amounted to 5.3 ± 0.19 ×10⁻⁶ cm/s. Besides, the “hepatotoxicity on HepG2 cells (in words)” value in the data set on HepG2 cells was “safe up to 100 µM but significantly decreased cell viability above 300 μM”. Also, in “in vitro [8]” (HepG2, 1 µM), the viability at 24 h, 1 µM worked out at 105 ± 4.6%. Also, in “in vitro [8]” (HepG2, 3 µM), the viability at 24 h, 3 µM worked out at 104 ± 8.7%. The viability at 24 h, 10 µM in the data set “in vitro [8]” (HepG2, 10 µM) is 97 ± 6.5%. Moreover, in “in vitro [8]” (HepG2, 30 µM), the viability at 24 h, 30 µM was 93 ± 2.7%. In the data set “in vitro [8]” (HepG2, 100 µM), the viability at 24 h, 100 µM came to 95.2 ± 6%. The viability at 24 h, 300 µM in “in vitro [8]” (HepG2, 300 µM) stood at 47.6 ± 5.6%. The viability at 24 h, 1 mM in “in vitro [8]” (HepG2, 1 mM) was found to be 13.9 ± 0.8%. The ORAC in data set [4] was 0.2 ± 0.1 [22] Trolox equivalents.
